Where “and” joins values, the source holds several entries; their conditions need not be identical. Equal values may be shown once. Entries after “also recorded” stand apart in the source; their conditions may differ.
What was measured:
γH2AX = γH2AX immunofluorescence staining and western blot (DNA damage); format: cell-based; conditions: 6 hours
Description: It is well-established that increased levels of ROS in cells leads to oxidative DNA damage, inducing genomic instability and inhibiting cell cycle progression. Cooke et al., FASEB J. 17: 1195 (2003). Since ISP I downregulates SELH, a key regulator of ROS response elements, the inventors first assessed whether treatment with ISP I augmented DNA damage in vitro.
(§1) Western blotting was performed to detect the protein expression level of SELH, NRF2 and γH2AX regulated by ISP I. The cells were lysed by RIPA buffer from ThermoFisher Scientific, and the concentration was measured using DC Protein Assay, a Bio-Rad product. Equal amounts of protein of each sample were loaded for gel electrophoresis and were transferred to nitrocellulose membrane, blocked and incubated overnight at 4° C. with primary antibodies. Then the membranes were washed with TBST (3 times, 10 min each). Exposure, imaging, and data analysis were done using a KwikQuant Imager system, a product of Kindle Biosciences (Greenwich, Conn. USA). The following antibodies were used: anti-phospho-histone H2A.X (Ser139), anti-NRF2 (Cell Signaling, Danvers, Mass. USA), anti-SELH (Abcam, Cambridge, Mass. USA), anti-GAPDH (Millipore, Temecula, Calif. USA).
For immunofluorescence assay, cells were seeded on a 35-mm confocal dish with glass bottom and were treated with ISP I. […] Then the cells were incubated with secondary antibody conjugated with Alexa Fluor-594 (Invitrogen), followed by staining with DAPI for nuclei. Images were obtained using Zeiss LSM 780 microscopy (Carl Zeiss, Oberkochen Germany).

[1] = system: renal cell carcinoma (RCC) cell lines ACHN, UM-RC-2, RCC4 and 786-O; assay: CCK8 cell viability assay, renal cell carcinoma cell lines; format: cell-based; conditions: 48 hours
Description: (§2) To confirm the cytotoxic effect observed in the glioblastoma cell lines, the inventors assessed ISP I's effect on renal cell carcinoma (RCC) cell lines (ACHN, UM-RC-2, RCC4 and 786-0). Cell viability was assessed similarly via CKK8 analysis. […] (FIG. 4C, D).
Cell viability was measured by Cell Counting Kit-8 (CCK-8, Dojindo Molecular Technologies, Tokyo, Japan). Cells were seeded in 96-well plates at a density of 3×10^3 cells/well and cultured for 24 hours before treatment with ISP I at different concentration. After treatment for a gradient ISP I concentration from 0 to 20 μg/ml for 48 hours, while control groups were only treated in PBS solution, 10 μl of CCK-8 solution were added to each well and cells were incubated for an additional 2 hours. The absorbance in each well at a wavelength of OD450 was detected by the Synergy H1 microplate reader, a product of BioTek (Winooski, Vt. USA).

786-O and RCC4 cells = assay: Annexin V apoptosis flow cytometry, RCC cells; format: cell-based
Description: as §2
Cells (2×10^5) were plated in 6-well plates and treated with different concentrations of ISP I. Then the cells were harvested and washed three times with PBS. Cells were resuspended in 100 μl binding buffer and were incubated with 5 μl APC-conjugated Annexin V working solution, a product of BD bioscience (Franklin Lakes, N.J. USA), and 1 μl propidium iodide (PI), a product of Invitrogen, for 15 min at room temperature with protection from light. Data acquisition and quantification were processed with BD LSRFortessa flow cytometer, using FlowJo software (Ashland, Oreg. USA).

[2] = Preclinical observation on doubled i.p. dose; format: in vivo; conditions: mice; one week of continuing administration
Description: Furthermore, the medicament is administered in “a therapeutically effective amount,” i.e., in a single dose or in multiple, divided subdoses at a suitable interval, e.g., two, three or more subdoses over a day or another appropriate schedule, to a prescribed total amount of active, such that metastasis is inhibited in the subject. Like the dose schedule, the effective amount of medicament will depend on a variety of factors, including the age and condition of the subject, the nature and extent of the cancerous condition, any contraindications, and the pharmacokinetic and pharmacodynamic characteristics of the medicament. For example, based on an accepted guide to animal-to-human dose conversion, see Nair R. Jacob, J. Basic. Clin. Pharm.

[3] = system: SELH, Nucleolin, Fibrillarin, POL1, NPM, p53; assay: Nucleolar stress response, immunofluorescence and western blot; format: cell-based; conditions: LN229
Description: (§3) SELH is localized in the nucleolus, which is a sensor of oxidative stress. Yang et al., Nature communications 7: 13599 (2016); Novoselov et al., J. Biol. Chem. 282: 11960 (2007). […] JNK2 activation by oxidative stress inactivated RNA polymerase I (POL1) transcription factor TIF1A in the nucleoli to down-regulate rRNA synthesis. Mayer et al., Genes Dev. 19: 933 (2005). To investigate whether the ribosomal biogenesis was disrupted by ISP I, pre-rRNA transcription was evaluated using real-time RT-PCR analysis in LN229 cells. […] To examine the mechanisms by which ISP I disrupts POL1 transcription, the inventors initially evaluated JNK2 activity and the overall state of the transcription machinery in ISP I-treated LN229 cells.
as §1
For immunofluorescence assay, cells were seeded on a 35-mm confocal dish with glass bottom and were treated with ISP I. After 24 hours, cells were fixed with 4% paraformaldehyde and were labeled with primary antibodies against γH2AX overnight at 4° C. Then the cells were incubated with secondary antibody conjugated with Alexa Fluor-594 (Invitrogen), followed by staining with DAPI for nuclei. Images were obtained using Zeiss LSM 780 microscopy (Carl Zeiss, Oberkochen Germany).

[4] = system: mitochondrial ROS (superoxide); assay: MitoSOX staining, flow cytometry; format: cell-based; conditions: 24 hours
Description: Since glutathione peroxidase catalyzes the reduction of reactive oxidative species (ROS), the inventors assessed whether treatment with ISP I increased the generation of ROS in glioblastoma cell lines (LN229 and U251) and RCC cell lines (786-O and RCC4).
To detect changes in mitochondrial superoxide after treatment with ISP I, the inventors used the MitoSOX Red mitochondrial superoxide indicator kit, a product of ThermoFisher Scientific. […] Cells were incubated with 5 μM MitoSOX Red for 15 min at room temperature, followed by flow cytometry analysis. Excitation by means of a 561 nm laser and a 610/20 discriminating filter was applied by a BD LSRFortessa flow cytometer.

[5] = system: pre-rRNA (POL1 transcript); assay: pre-rRNA transcription, real-time RT-PCR; format: cell-based; conditions: LN229 cells
Description: as §3

COC1C(O)CC(=O)OC(C)CC=CC=CC(OC2CCC(N(C)C)C(C)O2)C(C)CC(CC=O)C1OC1OC(C)C(OC2CC(C)(O)C(OC(=O)CC(C)C)C(C)O2)C(N(C)C)C1O (stereo not shown) [ISP I, 4″-isolvalerylspiramycin I]
γH2AX expression (DNA damage marker) (γH2AX; 786-O and RCC4): increase of γH2AX expression | γH2AX expression (DNA damage marker) (γH2AX; LN229 and U251): higher quantities of γH2A.X | γH2AX expression (DNA damage marker) (γH2AX; LN229 and U251, listed as ISP 1): increase of γH2AX expression | cytotoxic effect on RCC cell lines [1]: demonstrated a cytotoxic effect | most / least sensitive RCC cell line to cytotoxic effect ([1]; ACHN, UM-RC-2, RCC4, 786-O): ACHN appeared to be the most sensitive and 786-O demonstrated to be the least sensitive | apoptosis (Annexin V stain) (786-O and RCC4 cells): induced a dose-dependent apoptosis | adverse effect on doubling of the i.p. dose [2]: severe diarrhea | NPM expression (western blot) [3]: decreased nucleolar protein, NPM and P53 expression in a dose dependent manner; also recorded: reduced NMP expression | SELH expression in the nucleolus (immunofluorescence) ([3]; 8 h, 10 μg/mL): loss and reduction of SELH expression in the nucleolus | nucleolar labeling of Nucleolin, Fibrillarin, POL1, NPM (immunofluorescence) ([3]; 8 h, 10 μg/mL): loss and dispersion of nucleolar proteins (Neucleolin, Fibrillarin, POL1, NPM) | mitochondrial ROS (MitoSOX) ([4]; LN229 and U251, 5 μg/mL or 10 μg/mL): increase of mitochondrial ROS accumulation; also recorded: higher intracellular ROS in a dose-dependent manner | mitochondrial ROS (MitoSOX) ([4]; RCC cells 786-O and RCC4, 5 μg/ml or 10 μg/ml): increase in mitochondrial ROS accumulation; also recorded: higher intracellular ROS in a dose-dependent manner | pre-rRNA transcription [5]: decreased pre-rRNA transcription in a dose-dependent manner; also recorded: reduced Pre-rRNA (PoL1 transcript) in a dose-dependent manner

— US11351185B2, “Use of isovalerylspiramycins as anti-cancer agents to inhibit metastasis” (priority 2020, dated 2022)
